Tested on: IL-10
Experiment: Measurement of IL-10 increase rate (LPS-induced inflammation in mice, serum IL-10 by ELISA)
Assay type: in vivo
Conditions: Mus musculus, 2 h, oral 100 mg/kg in 0.5% methyl cellulose, LPS 0.4 mg/kg i.p. one hour later, serum taken one hour after LPS, % control ratio vs 0.5% methyl cellulose group, read-out: IL10 Increase Rate (%)
Protocol: A test substance was suspended in a 0.5% (w/v) methyl cellulose and orally administered to mice at a dose of 100 mg/kg. One hour later, a lipopolysaccharide (LPS, Sigma-Aldrich, L2630 (trade name)) (0.4 mg/kg) was intraperitoneally administered to induce inflammation. One hour after administration of LPS, blood was taken from the vena cava under anesthesia with isoflurane, placed in a tube containing a serum separating agent, allowed to stand still at room temperature for 20-30 minutes and centrifuged at 4° C. at 12,000 rpm for 5 minutes to obtain the serum. Thereafter, the amount of the IL-10 in the serum was measured by using Mouse IL-10 Quantikine ELISA Kit (R&D systems, M1000B (trade name)) or Mouse IL-10 Immunoassay kit (PerkinElmer, AL502 (trade name)) in accordance with the protocol of the kit. The serum was diluted 10 times with the dilution solution contained in the kit and put in use. IL-10 increase rate (% control ratio) of the compound was calculated in accordance with the following expression: IL-10 increase rate (% control ratio) (IL10 amount in compound administration group)×100/(IL-10 amount in 0.5% (w/v) methyl cellulose administration group)

| Structure (SMILES) | response vs control in vivo at 100 mg/kg [%] |
| --- | --- |
| Cn1c(COc2cc(C(F)(F)F)ccn2)nnc1[C@H]1CC[C@H](c2cnn([C@H]3CC[C@H](N4CC(CO)(CO)C4)CC3)c2)CC1 [Example 29, {1-[trans-4-(4-{trans-4-[4-Methyl-5-({[4-(trifluoromethyl)pyridin-2-yl]oxy}methyl)-4H-1,2,4-triazol-3-yl]cyclohexyl}-1H-pyrazol-1-yl)cyclohexyl]azetidine-3,3-diyl}dimethanol] | 111 |
| Cn1c(COc2cccc(C(F)(F)F)c2)nnc1[C@H]1CC[C@H](c2cn([C@@H]3CC[C@@H](CN4CCC4)OC3)nn2)CC1 [Example 19, 1,5-Anhydro-6-azetidin-1-yl-2,3,4,6-tetradeoxy-2-{4-[trans-4-(4-methyl-5-{[3-(trifluoromethyl)phenoxy]methyl}-4H-1,2,4-triazol-3-yl)cyclohexyl]-1H-1,2,3-triazol-1-yl}-D-erythro-hexitol] | 227 |
| Cn1c(COc2cc(C(F)(F)F)ccn2)nnc1[C@H]1CC[C@H](c2cnn([C@H]3C[C@H](O)[C@@H](N4CCC4)C3)c2)CC1 (racemic) [Example 28, (1SR,2SR,4RS)-2-(Azetidin-1-yl)-4-(4-{trans-4-[4-methyl-5-({[4-(trifluoromethyl)pyridin-2-yl]oxy}methyl)-4H-1,2,4-triazol-3-yl]cyclohexyl}-1H-pyrazol-1-yl)cyclopentanol] | 113 |
| Cn1c(COc2cc(C(F)(F)F)ccn2)nnc1[C@H]1CC[C@H](c2cnn([C@H]3CC[C@H](N4CC5(CCO5)C4)CC3)c2)CC1 [Example 25, 6-[trans-4-(4-{trans-4-[4-Methyl-5-({[4-(trifluoromethyl)pyridin-2-yl]oxy}methyl)-4H-1,2,4-triazol-3-yl]cyclohexyl}-1H-pyrazol-1-yl)cyclohexyl]-1-oxa-6-azaspiro[3.3]heptane] | 216 |
| CN1CCC(c2nnc(-c3ccc(-c4nnc(COc5cccc(C(F)(F)F)c5)n4C)cc3)o2)CC1 [Example 34, 1-Methyl-4-{5-[4-(4-methyl-5-{[3-(trifluoromethyl)phenoxy]methyl}-4H-1,2,4-triazol-3-yl)phenyl]-1,3,4-oxadiazol-2-yl}piperidine] | 202 |
| CN1CCC(F)(c2cn([C@H]3CC[C@H](c4nnc5n4CCCC5Oc4cccc(C(F)(F)F)c4)CC3)nn2)CC1 (stereo partly drawn) [Example 15, 3-{trans-4-[4-(4-Fluoro-1-methylpiperidin-4-yl)-1H-1,2,3-triazol-1-yl]cyclohexyl}-8-[3-(trifluoromethyl)phenoxy]-5,6,7,8-tetrahydro[1,2,4]triazolo[4,3-a]pyridine] | 227 |
| CN1CCC(c2cnn(-c3ccc(-c4nnc(COc5cccc(C(F)(F)F)c5)n4C)cc3)c2)CC1 [Example 16, 1-Methyl-4-{1-[4-(4-methyl-5-{[3-(trifluoromethyl)phenoxy]methyl}-4H-1,2,4-triazol-3-yl)phenyl]-1H-pyrazol-4-yl}piperidine] | 170 |
| Cn1c(COc2cccc(C(F)(F)F)c2)nnc1[C@H]1CC[C@H](n2cc([C@H]3CC[C@H](N4CCC4)CC3)cn2)CC1 [Example 17, 3-(trans-4-{4-[trans-4-(Azetidin-1-yl)cyclohexyl]-1H-pyrazol-1-yl}cyclohexyl)-4-methyl-5-{[3-(trifluoromethyl)phenoxy]methyl}-4H-1,2,4-triazole] | 334 |
| CN(C)C12CCC(c3cn([C@H]4CC[C@H](c5nnc(COc6cccc(C(F)(F)F)c6)n5C)CC4)nn3)(CC1)OC2 [Example 9, N,N-Dimethyl-1-{1-[trans-4-(4-methyl-5-{[3-(trifluoromethyl)phenoxy]methyl}-4H-1,2,4-triazol-3-yl)cyclohexyl]-1H-1,2,3-triazol-4-yl}-2-oxabicyclo[2.2.2]octan-4-amine] | 182 |
| COC(=O)c1cccc(OCc2nnc([C@H]3CC[C@H](c4cnn([C@H]5CC[C@H](N6CC7(COC7)C6)CC5)c4)CC3)n2C)c1 [Example 31, Methyl 3-{[4-methyl-5-(trans-4-{1-[trans-4-(2-oxa-6-azaspiro[3.3]hept-6-yl)cyclohexyl]-1H-pyrazol-4-yl}cyclohexyl)-4H-1,2,4-triazol-3-yl]methoxy}benzoate] | 222 |
| Cn1c(COC2CCCC(C(F)(F)F)C2)nnc1[C@H]1CC[C@H](c2cnn([C@H]3CC[C@H](N4CC5(CCOC5)C4)CC3)c2)CC1 (stereo partly drawn) [Example 32, 2-[trans-4-(4-{trans-4-[4-Methyl-5-({[3-(trifluoromethyl)cyclohexyl]oxy}methyl)-4H-1,2,4-triazol-3-yl]cyclohexyl}-1H-pyrazol-1-yl)cyclohexyl]-6-oxa-2-azaspiro[3.4]octane] | 202 |
| COC(=O)c1cccc(OCc2nnc([C@H]3CC[C@H](c4cnn([C@H]5CC[C@H](N6CCC6)CC5)c4)CC3)n2C)c1 [Example 30, Methyl 3-{[5-(trans-4-{1-[trans-4-(azetidin-1-yl)cyclohexyl]-1H-pyrazol-4-yl}cyclohexyl)-4-methyl-4H-1,2,4-triazol-3-yl]methoxy}benzoate] | 141 |
| Cn1c(COc2cc(C(F)(F)F)ccn2)nnc1[C@H]1CC[C@H](c2cnn([C@H]3CC[C@H](N4CC5(CCOC5)C4)CC3)c2)CC1 [Example 27, 2-[trans-4-(4-{trans-4-[4-Methyl-5-({[4-(trifluoromethyl)pyridin-2-yl]oxy}methyl)-4H-1,2,4-triazol-3-yl]cyclohexyl}-1H-pyrazol-1-yl)cyclohexyl]-6-oxa-2-azaspiro[3.4]octane] | 255 |
| Cn1c(COc2cc(C(F)(F)F)ccn2)nnc1[C@H]1CC[C@H](c2cnn([C@H]3CC[C@H](N4CCC5(COC5)C4)CC3)c2)CC1 [Example 26, 6-[trans-4-(4-{trans-4-[4-Methyl-5-({[4-(trifluoromethyl)pyridin-2-yl]oxy}methyl)-4H-1,2,4-triazol-3-yl]cyclohexyl}-1H-pyrazol-1-yl)cyclohexyl]-2-oxa-6-azaspiro[3.4]octane] | 231 |
| CC(C)c1cccc(OCc2nnc([C@H]3CC[C@H](n4cc(C5(F)CCN(C)CC5)nn4)CC3)n2C)c1 [Example 3, 4-Fluoro-1-methyl-4-{1-[trans-4-(4-methyl-5-{[3-(propan-2-yl)phenoxy]methyl}-4H-1,2,4-triazol-3-yl)cyclohexyl]-1H-1,2,3-triazol-4-yl}piperidine] | 179 |
| CC(C)c1cccc(O[C@H](C)c2nnc([C@H]3CC[C@H](n4cc([C@@H]5CC[C@@H](N(C)C)CO5)nn4)CC3)n2C)c1 [Example 8, (3R,6S)—N,N-Dimethyl-6-{1-[trans-4-(4-methyl-5-{(1R)-1-[3-(propan-2-yl)phenoxy]ethyl}-4H-1,2,4-triazol-3-yl)cyclohexyl]-1H-1,2,3-triazol-4-yl}tetrahydro-2H-pyran-3-amine] | 197 |
| CC(C)c1cccc(OCc2nnc(-c3ccc(-n4cc(C5CCN(C)CC5)nn4)cn3)n2C)c1 [Example 2, 5-[4-(1-Methylpiperidin-4-yl)-1H-1,2,3-triazol-1-yl]-2-(4-methyl-5-{[3-(propan-2-yl)phenoxy]methyl}-4H-1,2,4-triazol-3-yl)pyridine] | 220 |
| CN1CCC(c2cn(-c3ccc(-c4nnc(COc5cccc(C(F)(F)F)c5)n4C)cc3)nn2)CC1 [Example 1, 1-Methyl-4-{1-[4-(4-methyl-5-{[3-(trifluoromethyl)phenoxy]methyl}-4H-1,2,4-triazol-3-yl)phenyl]-1H-1,2,3-triazol-4-yl}piperidine] | 146 |
| CC(C)c1cccc(OCc2nnc([C@@H]3CC[C@@H](n4cc(C5(F)CCN(C)CC5)nn4)CO3)n2C)c1 [Example 13, 4-Fluoro-1-methyl-4-{1-[(3R,6S)-6-(4-methyl-5-{[3-(propan-2-yl)phenoxy]methyl}-4H-1,2,4-triazol-3-yl)tetrahydro-2H-pyran-3-yl]-1H-1,2,3-triazol-4-yl}piperidine] | 156 |
